We go through 6 molecules from ChEMBL document CHEMBL1149854, “Glycosides from the bark of Adina polycephala” (2008).

Each structure is given as a SMILES string.

A short description of the assay: Antiinflammatory activity in rat polymorphonuclear leukocytes assessed as inhibition of platelet activating factor-induced release of beta-glucuronidase at 10 uM after 15 mins. The settings on record: 0.25 h. The assay is classed as functional.
On to `COc1cc(C(=O)OC[C@H]2O[C@@H](OC(=O)c3cc(OC)c(O)c(OC)c3)[C@H](O)[C@@H](O)[C@@H]2O)ccc1O[C@@H]1O[C@H](COC(=O)c2cc(OC)c(O)c(OC)c2)[C@@H](O)[C@H](O)[C@H]1O`, for which the inhibition at 10 µM was found to be 6%.
The same measure for `COC(=O)C1=CO[C@@H](O[C@@H]2O[C@H](CO[C@@H]3O[C@@H](C)[C@H](O)[C@@H](O)[C@H]3O)[C@@H](O)[C@H](O)[C@H]2O)[C@@H]2C(CO)=CC[C@H]12`: 44.8%; for `COc1cc(O)ccc1O[C@@H]1O[C@H](COC(=O)c2ccc(O[C@@H]3O[C@H](COC(=O)c4cc(OC)c(O)c(OC)c4)[C@@H](O)[C@H](O)[C@H]3O)c(OC)c2)[C@@H](O)[C@H](O)[C@H]1O`: 43.6%.
The same measure for `COc1cc(C(=O)O)ccc1O[C@@H]1O[C@H](COC(=O)c2ccc(O[C@@H]3O[C@H](COC(=O)c4cc(OC)c(O)c(OC)c4)[C@@H](O)[C@H](O)[C@H]3O)c(OC)c2)[C@@H](O)[C@H](O)[C@H]1O`: 60.2%; for `COc1cc(O[C@@H]2O[C@H](COC(=O)c3ccc(O[C@@H]4O[C@H](COC(=O)c5cc(OC)c(O)c(OC)c5)[C@@H](O)[C@H](O)[C@H]4O)c(OC)c3)[C@@H](O)[C@H](O)[C@H]2O)ccc1O`: 25.2%.
The same measure for `C[C@@H]1C(=O)O[C@H]2[C@H](O)[C@@]34[C@H]5C[C@@H](C(C)(C)C)[C@]36[C@@H](OC(=O)[C@@H]6O)O[C@@]4(C(=O)O5)[C@@]12O` [GINKOLIDE B]: 78.8%.

In general, inhibition refers to how much of the control response was suppressed.
